Values quoted from earlier work as cited in patent US20020012634A1, “Antimicrobial dental materials contraining 2,4,4' -trichloro2' -hydroxydiphenyl ether” (priority 1997, published 2002).

Key:
[1] = tested on: Gram-positive and Gram-negative bacteria as well as fungi, yeasts and viruses
bacteria = details: long-term experiments
plaque bacteria = details: toothpaste ingredient, dentifrices

In the case of Oc1cc(Cl)ccc1Oc1ccc(Cl)cc1Cl [triclosan, 2,4,4′-trichloro-2′-hydroxydiphenyl ether], the “antimicrobial activity, in words” value [1] is listed as “highly effective antimicrobial with a broad spectrum of activity”, the “development of bacterial resistance” value (bacteria) is listed as “no development of bacterial resistance” and the “solubility in organic solvents” value is listed as “soluble in many organic solvents”. For the same molecule, the water solubility was “low” and the “effect against plaque bacteria / plaque” value (plaque bacteria) was “effective against plaque bacteria”.
